Reference: patent US8975259B2, “Compositions and methods for inhibiting G protein signaling” (University of Rochester, priority 2007, dated 2015)
Like-named read-outs stand apart in the source and are kept apart here.

Target: Gβ1γ2 (UniProt P54311+P63212)
Experiment: Competition phage ELISA: inhibition of SIGK-phage binding to immobilized biotinylated Gβ1γ2
Parameters: made in house; host or cells: Sf9 insect cells (baculovirus; co-expressed with BirA and (His)6-Gαi1, from which βγ was eluted); species or system rat
Conditions: for binding to the G protein β subunit: result in words
Protocol: Phage ELISA assays used to assess peptide binding to wild-type and mutant b-βγ were performed according to standard methods (Smrcka and Scott (2002) Methods Enzymol. 344:557-76). Briefly, 1 μg streptavidin was immobilized in the well of a […] overnight at 4° C. The wells were blocked with 100 μL of 2% bovine serum albumin (BSA) in Tris-buffered saline (TBS) for 1 hour at 4° C. followed by three washes of IX TBS/0.5% TWEEN®. […] The wells were washed, followed by the addition of IxIO^6 to IxIO^10 phage particles and incubated at 4° C. for 3 hours. The wells were then washed six times with TBS/0.5% TWEEN® followed by addition of 40 μL of 1:5000 dilution of anti-M13 antibody (Pharmacia, Uppsala, Sweden) and incubated at room temperature for 1 hour. The wells were washed, followed by the addition of 40 μL of (2,2′-Azino-bis (3-ethylbenzthiazoline)-6-sulfonic acid (ABTS) and the colorimetric reaction was monitored at 405 nm. Nonspecific binding was subtracted for each reading.
A phage ELISA assay was used to determine whether small molecules identified in the computational screen could interact with the Gβy protein interaction surface. […] The screen was based on a reduction in the optical density (OD) of wells containing Gβγ subunits and phage. […] Three background wells contained no βy subunits.
As disclosed herein, biotinylated Gβy subunits were immobilized on the surface of a 96-well plate coated with streptavidin, phage displaying Gβγ-binding peptides were subsequently added and binding in the presence and absence of test compounds detected with an anti-phage antibody.
The phage ELISA assay was used to rapidly screen the ability of compounds to bind to the protein interaction “hot spot” based on the method of Scott et. al (Scott et al., 2001). This assay is performed in the presence of detergent (0.5% Tween) to eliminate non-specific compound aggregation artifacts.
Compounds/DMSO and 0.1×10^10 phage were added simultaneously and subsequently incubated for 1 h at room temperature. Plates were then washed with 1× Tris-buffered saline/0.5% Tween 20 and incubated with anti-M13, HRP-conjugated antibody (Amersham, Chalfont St. Giles, Buckinghamshire, UK). Phage binding was determined by monitoring A405 upon addition of 2,2′-azino-bis(3-ethylbenzothiazoline-6-sulfonic acid) (Sigma Aldrich).

[1] = Table 18, compounds identified in Elisa screen, read-out: IC50

Row | IC50 (Table 8, read-out: IC50) [µM] | IC50 [1] [µM] | Structure (SMILES) | binding to the G protein β subunit | further results
1 | – | – | Cc1c2ccc(=O)cc-2oc2cc(O)ccc12 [6-hydroxy-9-methyl-3H-xanthen-3-one] | not to bind | –
2 | – | – | O=C(O)/C=C/c1c2ccc(=O)c(O)c-2oc2c(O)c(O)ccc12 [(E)-3-(4,5,6-trihydroxy-3-oxo-3H-xanthen-9-yl)acrylic acid] | – | IC50 (kind of constant not stated, read-out: binding to the G protein β subunit): 0.2 µM
3 | – | – | O=C(O)/C=C/c1c2ccc(=O)cc-2oc2cc(O)ccc12 [(E)-3-(6-hydroxy-3-oxo-3H-xanthe-9-yl)acrylic acid] | Neither of these compounds showed any binding | –
4 | 43 | 56 | Nc1c(S(=O)(=O)O)cc(Nc2cccc(S(N)(=O)=O)c2)c2c1C(=O)c1ccccc1C2=O [Compound M117] | – | –
5 | 68 | 18 | Nc1ccc(-c2ccc(Nc3cc(S(=O)(=O)O)c(N)c4c3C(=O)c3ccccc3C4=O)cc2)c(S(=O)(=O)O)c1 [Compound M125] | – | –
6 | – | – | Nc1c(S(=O)(=O)O)cc(Nc2cccc(S(N)(=O)=O)c2)c2c1C(=O)c1ccccc1C2=O [drawing 50] | – | IC50 (Table 2, read-out: Elisa IC50): 56 µM
